Data taken from the supplement of paper PMC10307832.

How the values were obtained:
Test in all cases: relative viability (nuclei count vs DMSO), 5 days (fraction); higher = more cells survive
[1] = compound: CN1CCC(CC1)OC2=CC(=C(C=C2)NC3=NC=C4C(=N3)N(C(=O)N4C)C5CCCC5)OC [AZ3146] + CC(=O)c1c(C)c2cnc(Nc3ccc(N4CCNCC4)cn3)nc2n(C2CCCC2)c1=O [Palbociclib] (partner 0.5 µM)
Outline: (§1)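 Relative viability was taken as the ratio of nuclei in treated wells to nuclei in vehicle wells. Lung cancer cell lines in 1536-well plates received compounds by pin tool one day after seeding, either one drug alone or a fixed anchor-drug dose plus five library-drug doses (not always all listed) in √10 steps. Nuclei were counted on 4× images after 5 days of treatment, and values are medians of duplicate plates.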

[2] = compound: CN1CCC(CC1)OC2=CC(=C(C=C2)NC3=NC=C4C(=N3)N(C(=O)N4C)C5CCCC5)OC [AZ3146] + O=C(c1cc(Cc2n[nH]c(=O)c3ccccc23)ccc1F)N1CCN(C(=O)C2CC2)CC1 [Olaparib] (partner 8 µM)
Outline: as §1

[3] = compound: CN1CCC(CC1)OC2=CC(=C(C=C2)NC3=NC=C4C(=N3)N(C(=O)N4C)C5CCCC5)OC [AZ3146] + CS(=O)(=O)N1CCN(Cc2cc3nc(-c4cccc5[nH]ncc45)nc(N4CCOCC4)c3s2)CC1 [Pictilisib] (partner 1 µM)
Outline: as §1

[4] = compound: CCOC(=O)CCNc1cc(N2CCc3ccccc3CC2)nc(-c2ccccn2)n1 [GSK-J4] + CC(=O)c1c(C)c2cnc(Nc3ccc(N4CCNCC4)cn3)nc2n(C2CCCC2)c1=O [Palbociclib] (partner 0.5 µM)
Outline: as §1

Cell Line | relative viability ([1]; first compound 0.08 µM) | relative viability ([1]; first compound 0.253 µM) | relative viability ([1]; first compound 0.8 µM) | relative viability ([1]; first compound 2.53 µM) | relative viability ([1]; first compound 8 µM) | relative viability ([2]; first compound 0.253 µM) | relative viability ([2]; first compound 0.8 µM) | relative viability ([2]; first compound 2.53 µM) | relative viability ([2]; first compound 8 µM) | relative viability ([3]; first compound 0.253 µM) | relative viability ([3]; first compound 0.8 µM) | relative viability ([3]; first compound 2.53 µM) | relative viability ([3]; first compound 8 µM) | relative viability ([4]; first compound 0.5 µM) | relative viability ([4]; first compound 5 µM) | relative viability ([4]; first compound 15.81 µM) | relative viability ([4]; first compound 50 µM) | relative viability ([2]; first compound 0.08 µM) | relative viability ([3]; first compound 0.08 µM) | relative viability ([4]; first compound 1.581 µM)
HCC-78 | 0.486 | 0.483 | 0.414 | 0.54 | 0.425 | 0.863 | 0.765 | 0.767 | 0.798 | 0.23 | 0.225 | 0.223 | 0.211 | 0.498 | 0.48 | 0.435 | 0.486 |  |  | 
HCC-366 | 0.312 | 0.398 | 0.419 | 0.391 | 0.271 | 0.388 | 0.401 | 0.399 | 0.302 | 0.133 | 0.138 | 0.146 | 0.191 | 0.357 |  | 0.357 | 0.354 | 0.304 | 0.233 | 0.322
HCC-827 | 0.544 | 0.471 | 0.467 | 0.421 | 0.516 | 0.612 | 0.625 | 0.568 | 0.785 | 0.971 | 0.987 | 1.2 | 0.928 | 0.539 | 0.543 | 0.431 | 0.411 | 0.624 | 0.965 | 0.46
HOP-62 | 0.357 | 0.5 | 0.438 | 0.436 | 0.447 | 0.345 | 0.44 | 0.361 | 0.359 | 0.719 | 0.627 | 0.895 | 0.548 | 0.469 | 0.44 | 0.465 | 0.473 | 0.48 | 0.561 | 0.455
IA-LM |  |  |  |  |  | 0.808 | 0.91 | 0.919 | 0.486 | 0.425 | 0.354 | 0.381 | 0.225 |  |  |  |  | 0.775 | 0.306 | 
LC-2-ad | 0.419 | 0.546 | 0.475 | 0.455 | 0.453 | 0.724 | 0.697 | 0.733 | 0.658 | 0.483 | 0.425 | 0.579 | 0.41 | 0.438 | 0.447 | 0.49 | 0.47 | 0.697 | 0.398 | 0.404
LCLC-97TM1 | 0.245 | 0.247 | 0.232 | 0.225 | 0.188 | 0.535 | 0.458 | 0.447 | 0.345 |  | 0.18 | 0.227 | 0.181 | 0.211 | 0.225 | 0.211 | 0.272 | 0.52 |  | 0.216
LCLC-103H | 0.415 | 0.458 | 0.495 | 0.446 | 0.444 | 0.765 | 0.778 | 0.749 | 0.745 | 0.672 | 0.557 | 0.492 | 0.555 | 0.447 | 0.455 | 0.449 | 0.49 | 0.755 | 0.548 | 0.36
LK-2 |  |  | 0.633 | 0.591 | 0.71 | 0.586 | 0.559 | 0.672 | 0.831 |  |  | 0.668 | 0.668 | 0.765 | 0.85 | 0.683 | 0.506 | 0.61 | 0.49 | 0.652
LOU-NH91 | 0.513 | 0.582 | 0.512 | 0.539 | 0.537 | 0.91 | 0.972 | 0.904 | 0.925 | 0.542 | 0.459 | 0.494 | 0.474 | 0.51 | 0.493 | 0.507 | 0.46 | 0.922 | 0.475 | 0.468
LU99A |  | 0.464 | 0.428 | 0.377 | 0.455 | 0.26 | 0.24 | 0.271 | 0.257 | 0.351 | 0.32 | 0.376 | 0.351 | 0.403 |  | 0.383 | 0.344 |  | 0.318 | 0.375
LXF-289 | 0.574 | 0.603 | 0.564 | 0.595 | 0.579 | 0.989 | 1.07 | 1.18 | 1.06 | 0.776 | 0.779 | 0.824 | 0.642 | 0.588 | 0.58 | 0.555 | 0.533 | 1.13 | 0.693 | 0.546
NCI-H522 | 1.15 | 0.902 | 1.14 | 0.894 | 1.1 | 0.685 | 0.515 | 0.695 | 0.596 |  |  |  |  | 1.22 |  | 0.976 | 0.622 | 0.68 |  | 0.953
NCI-H596 |  |  |  |  |  | 0.738 | 0.752 | 0.77 | 0.765 | 0.374 | 0.413 | 0.302 | 0.41 |  |  |  |  | 0.677 | 0.361 | 
NCI-H1299 |  |  |  |  |  | 0.941 | 0.944 | 0.938 | 0.789 | 0.976 | 0.677 | 0.734 | 0.264 |  |  |  |  | 0.932 | 0.786 | 
NCI-H1563 |  |  |  |  |  |  |  |  |  | 0.641 | 0.729 | 0.685 | 0.604 |  |  |  |  |  | 0.636 | 
NCI-H1648 |  |  | 0.27 | 0.298 | 0.232 |  | 0.987 | 1.18 | 0.802 |  |  |  |  | 0.293 | 0.358 |  | 0.3 |  |  | 
NCI-H1703 |  |  |  |  |  | 0.383 | 0.517 | 0.346 | 0.402 | 0.258 | 0.231 | 0.228 | 0.234 |  |  |  |  | 0.424 | 0.254 | 
NCI-H2342 | 0.527 | 0.502 | 0.582 | 0.565 | 0.501 | 0.474 | 0.529 | 0.487 | 0.695 |  |  |  |  | 0.646 | 0.596 | 0.507 | 0.678 | 0.464 |  | 0.48
SW 900 | 0.447 |  | 0.502 | 0.489 | 0.589 |  | 0.785 | 0.846 | 0.754 |  |  |  |  | 0.575 | 0.546 | 0.517 | 0.436 | 0.706 |  | 0.496
